Data: patent US12186283B2, “Bismuth-thiol compositions and methods of use” (Microbion Corporation, priority 2018, dated 2025)

Tests used:
N. gonorrhoeae = N. gonorrhoeae MMX 683 (ATCC 49226); cited from earlier work
Bacteroides fragilis = settings: B. fragilis MMX 123 (ATCC 25285); cited from earlier work
Clostridium difficile = settings: C. difficile MMX 4381 (ATCC 700057), CC^I; cited from earlier work
Escherichia coli [1] = experiment: Broth microdilution MIC (Example 11); assay type: cell-based
Klebsiella pneumoniae = experiment: Broth microdilution MIC (Example 11); assay type: cell-based
Enterobacter cloacae = experiment: Broth microdilution MIC (Example 11); assay type: cell-based; settings: E. cloacae MMX 5981 (ATCC BAA-2468); NDM-1, LevR, MEMR, CAZR, GmR
Pseudomonas aeruginosa [2] = experiment: Broth microdilution MIC (Example 11); assay type: cell-based
Acinetobacter baumannii = experiment: Broth microdilution MIC (Example 11); assay type: cell-based
[3] = test system: Staphylococcus aureus (MRSA); experiment: Broth microdilution MIC (Example 11); assay type: cell-based
[4] = test system: Enterococcus spp. (E. faecalis, E. faecium); experiment: Broth microdilution MIC (Example 11); assay type: cell-based; settings: VRE, LevR, CipR, EryR
Escherichia coli [5] = settings: E. coli MMX 102 (ATCC 25922); cited from earlier work
Pseudomonas aeruginosa [6] = settings: P. aeruginosa MMX 103 (ATCC 27853); cited from earlier work
[7] = test system: Staphylococcus aureus (MRSA); settings: S. aureus MMX 101 (ATCC 29213); cited from earlier work

CO/N=C(\C(=O)N[C@@H]1C(=O)N2C(C(=O)O)=C(CSc3nc(=O)c(=O)[nH]n3C)CS[C@H]12)c1csc(N)n1 [Ceftriaxone]
MIC, CLSI QC range (N. gonorrhoeae): (0.004-0.015) μg/mL

Cc1ncc([N+](=O)[O-])n1CCO [Metronidazole]
MIC, CLSI QC range (Bacteroides fragilis): (0.25-1) pg/mL
MIC, CLSI QC range (Clostridium difficile): (0.12-0.5) pg/mL

CCc1c(Cl)c(O)c(Cl)c(O)c1C(=O)O[C@H]1[C@H](O)[C@H](OC)[C@H](OC/C2=C\C=C\C[C@H](O)/C(C)=C/[C@H](CC)[C@@H](O[C@@H]3OC(C)(C)[C@@H](OC(=O)C(C)C)[C@H](O)[C@@H]3O)/C(C)=C/C(C)=C/C[C@@H]([C@@H](C)O)OC2=O)O[C@@H]1C [Fidaxomicin]
MIC, CLSI QC range (Clostridium difficile): (0.06-0.25) pg/mL

Gentamicin
MIC (Escherichia coli [1]; E. coli MMX 102 (ATCC 25922), QC): 1 µg/mL
MIC (Escherichia coli [1]; E. coli MMX 5980 (ATCC BAA-2469), NDM-1, LevR, MEMR, CAZR, GmR): >64 µg/mL
MIC (Escherichia coli [1]; E. coli MMX 8423, ESBL, LevR, CAZR, GmR): 64 µg/mL
MIC (Escherichia coli [1]; E. coli MMX 8424, ESBL, CAZR): 0.25 µg/mL
MIC (Escherichia coli [1]; E. coli MMX 8425, ESBL, LevR, CAZR, GmR): >64 µg/mL
MIC (Klebsiella pneumoniae; K. pneumoniae MMX 4622, KPC-2, MEMR, CAZR): 0.25 µg/mL
MIC (Klebsiella pneumoniae; K. pneumoniae MMX 4623, KPC-2, MEMR, CAZR, GMR): 64 µg/mL
MIC (Klebsiella pneumoniae; K. pneumoniae MMX 4653, KPC-3, LevR, MEMR, CAZR): 1 µg/mL
MIC (Klebsiella pneumoniae; K. pneumoniae MMX 4683, KPC-2, LevR, MEMR, CAZR): 1 µg/mL
MIC (Klebsiella pneumoniae; K. pneumoniae MMX 4684, ESBL, MEMR): 0.25 µg/mL
MIC (Klebsiella pneumoniae; K. pneumoniae MMX 4685, ESBL, LevR, MEMR, CAZR): 1 µg/mL
MIC (Klebsiella pneumoniae; K. pneumoniae MMX 4694, KPC-3, LevR, MEMR, CAZR): 8 µg/mL
MIC (Klebsiella pneumoniae; K. pneumoniae MMX 5979, NDM-1, LevR, MEMR, CAZR, GmR): >64 µg/mL
MIC (Enterobacter cloacae): >64 µg/mL
MIC (Pseudomonas aeruginosa [2]; P. aeruginosa MMX 103 (ATCC 27853), QC): 1 µg/mL
MIC (Pseudomonas aeruginosa [2]; P. aeruginosa MMX 1381, MDR, LevR, CipR, MEMR, CAZR): 8 µg/mL
MIC (Pseudomonas aeruginosa [2]; P. aeruginosa MMX 2562, MDR, LevR, CipR, MEMR, CAZR): 8 µg/mL
MIC (Pseudomonas aeruginosa [2]; P. aeruginosa MMX 3991, MDR, LevR, CipR, MEMR, CAZR): 4 µg/mL
MIC (Pseudomonas aeruginosa [2]; P. aeruginosa MMX 4654, IMP-7, LevR, CipR, MEMR, CAZR): > 64 µg/mL
MIC (Pseudomonas aeruginosa [2]; P. aeruginosa MMX 4697, VIM-2, LevR, CipR, MEMR, CAZR): 4 µg/mL
MIC (Acinetobacter baumannii; A. baumannii MMX 2592, MDR, LevR, CipR, MEMR, CAZR, GmR): > 64 µg/mL
MIC (Acinetobacter baumannii; A. baumannii MMX 2593, MDR, LevR, CipR, MEMR, CAZR, GmR): > 64 µg/mL
MIC (Acinetobacter baumannii; A. baumannii MMX 3372, MDR, CipR, MEMI, CAZI): 0.5 µg/mL
MIC (Acinetobacter baumannii; A. baumannii MMX 3373, Sensitive): 0.12 µg/mL
MIC (Acinetobacter baumannii; A. baumannii MMX 4651 (NCTC 13304), MDR, OXA-27, LevR, CipR, MEMR, CAZR, GmI): 8 µg/mL
MIC ([3]; S. aureus MMX 101 (ATCC 29213), QC, MSSA): 0.12 µg/mL
MIC ([3]; S. aureus MMX 5373, MRSA, LevR, CipR, CCR, EryR, OxR): 0.25 µg/mL
MIC ([3]; S. aureus MMX 6311, MRSA, LevR, CipR, CCR, EryR, OxR): 0.25 µg/mL
MIC ([3]; S. aureus MMX 9203, MRSA, LevR, CipR, EryR, OxR): 0.12 µg/mL
MIC ([3]; S. aureus MMX 9204, MRSA, LevR, CipR, EryR, OxR): 0.25 µg/mL
MIC ([3]; S. aureus MMX 9205, MRSA, LevR, CipR, CCR, EryR, OxR): 0.25 µg/mL
MIC ([4]; E. faecalis MMX 8960): >64 µg/mL
MIC ([4]; E. faecalis MMX 8961): 8 µg/mL
MIC ([4]; E. faecalis MMX 8962): >64 µg/mL
MIC ([4]; E. faecium MMX 485, vanA): >64 µg/mL
MIC ([4]; E. faecium MMX 752, vanA): >64 µg/mL
CLSI QC range (MIC) (Escherichia coli [5]): (0.25-1) μg/mL
CLSI QC range (MIC) (Pseudomonas aeruginosa [6]): (0.5-2)
CLSI QC range (MIC) [7]: (0.12-1) μg/mL
